Where “and” joins values, the source holds several entries; their conditions need not be identical. Identical values can stand only once.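 How tested: cells in 96-well plates exposed to compound for 48 hours at five concentrations. At the GI50, growth is halved. The concentration for full growth arrest is given as TGI.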
How the values were obtained:
Assay in all cases: growth of human tumour cells (NCI), 48 h
CAKI-1 renal = system: CAKI-1 renal
CCRF-CEM leukemia = system: CCRF-CEM leukemia
DU-145 prostate = system: DU-145 prostate
HCT-116 colon = system: HCT-116 colon
HL-60(TB) leukemia = system: HL-60(TB) leukemia
HOP-62 NSCLC = system: HOP-62 NSCLC
HOP-92 NSCLC = system: HOP-92 NSCLC
HT29 colon = system: HT29 colon
IGROV1 ovarian = system: IGROV1 ovarian
MALME-3M melanoma = system: MALME-3M melanoma
MDA-MB-231 breast = system: MDA-MB-231 breast
RXF 393 renal = system: RXF 393 renal
SF-268 CNS = system: SF-268 CNS
SK-MEL-2 melanoma = system: SK-MEL-2 melanoma
SR leukemia = system: SR leukemia
SW-620 colon = system: SW-620 colon

SMILES | TGI (CAKI-1 renal) | TGI (CCRF-CEM leukemia) | TGI (DU-145 prostate) | TGI (HCT-116 colon) | TGI (HL-60(TB) leukemia) | TGI (HOP-62 NSCLC) | TGI (HOP-92 NSCLC) | TGI (HT29 colon) | TGI (IGROV1 ovarian) | TGI (MALME-3M melanoma) | TGI (MDA-MB-231 breast) | TGI (RXF 393 renal) | TGI (SF-268 CNS) | TGI (SK-MEL-2 melanoma) | TGI (SR leukemia) | TGI (SW-620 colon) | GI50 (DU-145 prostate) | GI50 (HCT-116 colon) | GI50 (HOP-62 NSCLC) | GI50 (MDA-MB-231 breast)
COc1ccccc1N1CCN(CCCN2/C(=C(\O)c3ccccc3)C(=O)c3c(C)cc(C)nc3S2(=O)=O)CC1 | > 100 µM | > 100 µM | > 100 µM | > 100 µM | > 100 µM | > 100 µM | 98 µM | > 100 µM | > 100 µM | > 100 µM | > 100 µM | > 100 µM | > 100 µM | > 100 µM | > 100 µM | > 100 µM | – | – | – | –
CNc1nc2n(CCO)c(-c3ccccc3)c(-c3ccccc3)nc-2c(=O)n1 | > 50 µM | > 50 µM | > 50 µM | > 50 µM | – | > 50 µM | > 50 µM | > 50 µM | > 50 µM | > 50 µM | > 50 µM | > 50 µM | > 50 µM | > 50 µM | > 50 µM | > 50 µM | – | – | – | –
CCn1c(SCC(=O)NNC(=S)Nc2ccc(C)cc2)nc2ccccc2c1=O | – | > 100 µM | > 100 µM | > 100 µM | > 100 µM | > 100 µM | – | > 100 µM | > 100 µM | > 100 µM | > 100 µM | > 100 µM | > 100 µM | > 100 µM | > 100 µM | > 100 µM | – | – | – | –
O=c1oc2cc(O)ccc2c(O)c1C(c1ccccc1F)c1c(O)c2ccc(O)cc2oc1=O | > 100 µM | – | > 100 µM | > 100 µM | 43.7 µM | > 100 µM | > 100 µM | > 100 µM | > 100 µM | – | > 100 µM | > 100 µM | > 100 µM | > 100 µM | > 100 µM | > 100 µM | – | – | – | –
CN(C)/C=N/S(=O)(=O)c1nn2c(C=O)c(-c3ccc(Cl)cc3)nc2s1 | 2.58 µM | 0.701 µM | 6.02 µM | 2.18 µM | – | 27.5 µM | 7.17 µM | 0.552 µM | – | 3.2 µM | 7.77 µM | 3.37 µM | 12.6 µM | 21.3 µM | 3.4 µM | 1.52 µM | – | – | – | –
Cc1ccc(NC(=S)N/N=C(/c2ccccc2)c2ccccn2)cc1 | 9.48 µM | – | 18.8 µM | 14 µM | 2.26 µM | 17.9 µM | 8.82 µM | 20.3 µM | 18.9 µM | 9.23 µM | 20.1 µM | 12.7 µM | 1.32 µM | 15.1 µM | > 20.5 µM | 20.9 µM | – | – | – | –
COC1(OC)CC(CO)(CNc2nc(N)nc(Cl)c2/C=N\O)C1 | > 100 µM | > 100 µM | > 100 µM | > 100 µM | > 100 µM | > 100 µM | 89.2 µM | > 100 µM | > 100 µM | > 100 µM | > 100 µM | > 100 µM | > 100 µM | – | > 100 µM | > 100 µM | – | – | – | –
CC(=O)OC1(C)C=CC(=O)C=C1 | > 100 µM | > 100 µM | > 100 µM | > 100 µM | > 100 µM | 75.7 µM | > 100 µM | > 100 µM | 31.6 µM | – | 49.1 µM | – | > 100 µM | 98.4 µM | > 100 µM | > 100 µM | – | – | – | –
CCNc1cc2c(cc1O)CC[C@@H]1[C@@H]2CC[C@]2(C)[C@@H](O)CC[C@@H]12 | 27.2 µM | > 100 µM | 20.5 µM | 18.7 µM | 8.12 µM | 23.2 µM | 22.4 µM | 33.7 µM | 33.2 µM | 17.5 µM | 24.9 µM | 20.6 µM | 37.9 µM | – | 41.2 µM | 19 µM | 3.84 µM | 3.1 µM | 0.584 µM | –
CC(C)Oc1ccc2c(c1)OCC1Cc3ccccc3OC21 (stereo not given) | > 100 µM | > 100 µM | > 100 µM | > 100 µM | > 100 µM | > 100 µM | > 100 µM | > 100 µM | > 100 µM | > 100 µM | > 100 µM | – | > 100 µM | > 100 µM | > 100 µM | > 100 µM | – | – | – | –
N#C/C(N)=C(\C#N)N=CN | – | > 100 µM | > 100 µM | > 100 µM | > 100 µM | > 100 µM | > 100 µM | > 100 µM | > 100 µM | > 100 µM | > 100 µM | – | > 100 µM | > 100 µM | > 100 µM | > 100 µM | – | – | – | –
CCc1c(C)c(C#N)c(=S)n(C2OC(COC(C)=O)C(OC(C)=O)C(OC(C)=O)C2OC(C)=O)c1C (stereo not given) | > 100 µM | > 100 µM | > 100 µM | > 100 µM and 45.5 µM | > 100 µM | > 100 µM and 21.8 µM | – | > 100 µM | > 100 µM | > 100 µM | > 100 µM and 73.9 µM | > 100 µM and 29.1 µM | > 100 µM | 32.9 µM | > 100 µM | > 100 µM | – | > 100 µM and 21.7 µM | 45.4 µM and 5.33 µM | > 100 µM and 13 µM
O=C(Cc1ccccc1)N/N=C/c1ccccc1O | > 100 µM | > 100 µM | > 100 µM | > 100 µM | > 100 µM | – | 54.8 µM | > 100 µM | 81.8 µM | 66.6 µM | > 100 µM | – | > 100 µM | > 100 µM | > 100 µM | > 100 µM | – | – | – | –
O=C(O)[C@@H]1CSCN1C(=O)[C@@H]1CCC(=S)N1 | > 100 µM | > 100 µM | > 100 µM | – | > 100 µM | > 100 µM | – | > 100 µM | > 100 µM | > 100 µM | > 100 µM | > 100 µM | > 100 µM | > 100 µM | > 100 µM | > 100 µM | – | – | – | –
COc1ccc(N2C(=O)c3cc(C)cnc3S2(=O)=O)cc1 | – | > 100 µM | > 100 µM | > 100 µM | > 100 µM | > 100 µM | > 100 µM | > 100 µM | > 100 µM | > 100 µM | > 100 µM | > 100 µM | > 100 µM | > 100 µM | > 100 µM | > 100 µM | – | – | – | –

Source: PubChem BioAssay (NCI)
